Where two headings read alike, the source gives them in different places.
Key:
Type in all cases: in vivo
[1] = tested on: Plasmopara viticola (PLASVI); experiment: Downy Mildew of Grape one day protectant (1DP); details: grape (Carignane), sprayed to runoff, rate 200 ppm
Experimental: Final treatment volumes were obtained by adding 0.1 percent aqueous Ethomeen T25 or 0.1 percent aqueous Spraymate X77+0.1 percent wt./vol. ammonium sulfate^+. Downy Mildew of Grape (Plasmopara viticola-[…]) Vines (cultivar Carignane) were grown from seed in a soilless peat-based potting mixture “Metro-Mix 360” (W.R Grace and Co.) until the seedlings were 10-20 cm tall. These plants were then sprayed to runoff with the test compound at a rate of 200 ppm. After 24 hours the test plants were inoculated by spraying with an aqueous sporangia suspension of Plasmopara viticola ([…]). The plants were then transferred to a dew chamber for 24 hours, then to the greenhouse until disease developed on the untreated control plants.

[2] = tested on: Colletotricum lagenarium (COLLLA); experiment: Cucumber Anthracnose one day protectant (1DP); details: cucumber (Bush Champion), sprayed to runoff, rate 200 ppm
Experimental: Compound formulation was accomplished by dissolving Compound I, II, III, IV, V, or VI in water with serial dilutions to obtain desired rates. Final treatment volumes were obtained by adding 0.1 percent aqueous Ethomeen T25 or 0.1 percent aqueous Spraymate X77+0.1 percent wt./vol. ammonium sulfate^+.
Cucumber Anthracnose (Colletotricum lagenarium; COLLLA) (1DP)
Cucumber plants (variety Bush Champion) were grown in plastic pots containing 100 percent Metro-Mix 360 (W.R Grace and Co.) until the first true leaf was 20-80 percent expanded. Each pot contained 1 seedling. These plants were then sprayed to runoff with the test compound at a rate of 200 ppm. After 24 hours, the plants were sprayed with an aqueous spore suspension of Colletotricum lagenarium (COLLLA). The plants were then transferred to a dew chamber for 24 hours, then to a growth chamber until disease developed on the untreated control plants.

[3] = tested on: Puccinia recondita f. sp. tritici (PUCCRT); experiment: Brown Rust of Wheat one day protectant (1DP); details: wheat (Monon), sprayed to runoff, rate 200 ppm
Experimental: (§1) Final treatment volumes were obtained by adding 0.1 percent aqueous Ethomeen T25 or 0.1 percent aqueous Spraymate X77+0.1 percent wt./vol. ammonium sulfate^+. Brown Rust of Wheat (Puccinia recondita f. sp. tritici-PUCCRT) (1 DP) Wheat (cultivar Monon) was grown in plastic pots (6.2 cm×8.75 cm) containing 50 percent mineral soil, 50 percent Metro-Mix 360 (W.R Grace and Co.) until the seedlings were 10-20 cm tall. These plants were then sprayed to runoff with the test compound at a rate of 200 ppm. After 24 hours the test plants were inoculated by spraying with an aqueous spore suspension of Puccinia recondita f. sp. tritici (PUCCRT). The plants were then transferred to a dew chamber for 24 hours, then to the greenhouse until disease developed on the untreated control plants.

[4] = tested on: Erysiphe graminis f. sp. tritici (ERYSGT); experiment: Powdery Mildew of Wheat one day protectant (1DP); details: wheat (Monon), sprayed to runoff, rate 200 ppm
Experimental: Final treatment volumes were obtained by adding 0.1 percent aqueous Ethomeen T25 or 0.1 percent aqueous Spraymate X77+0.1 percent wt./vol. ammonium sulfate^+. Powdery Mildew of Wheat (Erysiphe graminis f. sp. tritici-[…]) Wheat (cultivar Monon) was grown in plastic pots (6.2 cm×8.75 cm) containing 50 percent mineral soil, 50 percent Metro-Mix 360 (W.R Grace and Co.) until the seedlings were 10-20 cm tall. These plants were then sprayed to runoff with the test compound at a rate of 200 ppm. After 24 hours the test plants were inoculated with Erysiphe graminis f. sp. tritici ([…]) by dusting spores from stock plants onto the test plants. The plants were then transferred to the greenhouse until disease developed on the untreated control plants.

[5] = tested on: Phytophthora infestans PHYTIN; details: curative 1 day, low volume 300 L/ha, tomato
[6] = tested on: Septoria tritici (SEPTTR); experiment: Speckled Leaf Blotch of Wheat one day protectant (1DP); details: wheat (Monon), sprayed to runoff, rate 200 ppm
Experimental: as §1, with “Speckled Leaf Blotch” for “Brown Rust”, “(Septoria tritici-[…])” for “(Puccinia recondita f. sp. tritici-PUCCRT) (1 DP)”, “Septoria” for “Puccinia recondita f. sp.”, “([…]).” for “(PUCCRT).”

[7] = tested on: Leptosphaeria nodorum (LEPTNO); experiment: Glume Blotch of Wheat one day protectant (1DP); details: wheat (Yuma), sprayed to runoff, rate 200 ppm
Experimental: as §1, with “Glume Blotch” for “Brown Rust”, “(Leptosphaeria nodorum-[…])” for “(Puccinia recondita f. sp. tritici-PUCCRT) (1 DP)”, “Yuma)” for “Monon)”, “Co.).” for “Co.)”, “Leptosphaeria nodorum ([…]).” for “Puccinia recondita f. sp. tritici (PUCCRT).”

[8] = tested on: Puccinia recondita f. sp. tritici PUCCRT; experiment: Curative low volume test, wheat brown rust; details: low volume 300 L/ha; for PUCCRT 1DC percent disease control: curative 1 day; for PUCCRT 3DC percent disease control: curative 3 days
[9] = tested on: Venturia inaequalis (VENTIN); experiment: Apple Scab curative (compound added 2 days after inoculation); details: Curative at 200 ppm

NC[C@@H]1NC(=O)C(C(=O)CC(NC(=O)[C@@H](N)CO)(C(=O)O)C(=O)O)=C1O [Compound I, {[(2S)-2-amino-3-hydroxypropanoyl]amino}{2-[(5S)-5-(aminomethyl)-4-hydroxy-2-oxo-2,5-dihydro-1H-pyrrol-3-yl]-2-oxoethyl}malonic acid]
PLASVI percent control of plant disease [1]: ++ (++ = 75-100 percent control of plant disease) | COLLLA percent control of plant disease [2]: − (− = 0-29 percent control of plant disease) | PUCCRT percent control of plant disease [3]: ++ (++ = 75-100 percent control of plant disease) | ERYSGT percent control of plant disease [4]: − (− = 0-29 percent control of plant disease) | PHYTIN 1DC percent disease control ([5]; 7.8 g ai/ha): − (− = 0-29 percent control of plant disease) | PHYTIN 1DC percent disease control ([5]; 15.6 g ai/ha): + (+ = 30-74 percent control of plant disease) | PHYTIN 1DC percent disease control ([5]; 31.2 g ai/ha): + (+ = 30-74 percent control of plant disease) | PHYTIN 1DC percent disease control ([5]; 62.5 g ai/ha): − (− = 0-29 percent control of plant disease) | PHYTIN 1DC percent disease control ([5]; 125 g ai/ha): + (+ = 30-74 percent control of plant disease) | PHYTIN 1DC percent disease control ([5]; 250 g ai/ha): ++ (++ = 75-100 percent control) | SEPTTR percent control of plant disease [6]: ++ (++ = 75-100 percent control of plant disease) | LEPTNO percent control of plant disease [7]: + (+ = 30-74 percent control of plant disease) | PUCCRT 1DC percent disease control ([8]; 7.8 g ai/ha): − (− = 0-29 percent control of plant disease) | PUCCRT 1DC percent disease control ([8]; 15.6 g ai/ha): − (− = 0-29 percent control of plant disease) | PUCCRT 1DC percent disease control ([8]; 31.2 g ai/ha): + (+ = 30-74 percent control of plant disease) | PUCCRT 1DC percent disease control ([8]; 62.5 g ai/ha): + (+ = 30-74 percent control of plant disease) | PUCCRT 1DC percent disease control ([8]; 125 g ai/ha): ++ (++ = 75-100 percent control) | PUCCRT 1DC percent disease control ([8]; 250 g ai/ha): ++ (++ = 75-100 percent control) | PUCCRT 3DC percent disease control ([8]; 7.8 g ai/ha): − (− = 0-29 percent control of plant disease) | PUCCRT 3DC percent disease control ([8]; 15.6 g ai/ha): + (+ = 30-74 percent control of plant disease) | PUCCRT 3DC percent disease control ([8]; 31.2 g ai/ha): ++ (++ = 75-100 percent control) | PUCCRT 3DC percent disease control ([8]; 62.5 g ai/ha): ++ (++ = 75-100 percent control) | PUCCRT 3DC percent disease control ([8]; 125 g ai/ha): ++ (++ = 75-100 percent control) | PUCCRT 3DC percent disease control ([8]; 250 g ai/ha): ++ (++ = 75-100 percent control) | VENTIN percent control of plant disease [9]: ++ (++ = 75-100 percent control of plant disease)

Source: patent publication US20070173539A1, “Use of malonomicin and analogs in fungicidal applications” (priority 2006, published 2007)
